Measurements published in patent publication US7186672B2, “Fungicidal mixtures” (BASF Aktiengesellschaft, priority 2001, dated 2007).

Tested on: Erysiphe [syn. Blumeria] graminis forma specialis tritici
Assay: Protective activity against mildew of wheat (potted wheat seedlings, greenhouse)
Assay type: in vivo
Details: wheat cv. Kanzler, 7 days
Method: The active compounds, separately or together, were formulated as a 10% emulsion in a mixture of 63% by weight of cyclohexanone and 27% by weight of emulsifier, and diluted with water to the desired concentration.
Evaluation was carried out by determining the infected leaf areas in percent. These percentages were converted into efficacies. The efficacy (W) was calculated as follows using Abbot's formula: […] • α corresponds to the fungal infection of the treated plants in % and • β corresponds to the fungal infection of the untreated (control) plants in %
An efficacy of 0 means that the infection level of the treated plants corresponds to that of the untreated control plants; an efficacy of 100 means that the treated plants were not infected.
The expected efficacies of the mixtures of the active compounds were determined using Colby's formula [R. S. Colby, Weeds 15, 20–22 (1967)] and compared with the observed efficacies. Colby's formula: E=x+y−x·y/100 • E expected efficacy, expressed in % of the untreated control, when using the mixture of the active compounds A and B at the concentrations a and b • x efficacy, expressed in % of the untreated control, when using active compound A at a concentration of a • y efficacy, expressed in % of the untreated control, when using active compound B at a concentration of b.
Protective Activity Against Mildew of Wheat Caused by Erysiphe [syn. Blumeria] graminis forma specialis tritici
Leaves of potted wheat seedlings of the cultivar “Kanzler” were sprayed to runoff point with an aqueous preparation of active compound which had been prepared from a stock solution made of 10% of active compound, 85% of cyclohexanone and 5% of emulsifier and, 24 hours after the spray coating had dried on, dusted with spores of mildew of wheat (Erysiphe [syn. Blumeria] graminis forma specialis. tritici). The test plants were then placed in a greenhouse at 20–24° C. and 60–90% relative atmospheric humidity. After 7 days, the extent of the mildew development was determined visually in % infection of the total leaf area.
The visually determined percentages of infected leaf area were converted into efficacies as % of the untreated control. An efficacy of 0 means that the infection level of the treated plants corresponds to that of the untreated control; an efficacy of 100 means 0% infection. The expected efficacies of the combinations of active compounds were determined using Colby's formula (Colby, S. R. (Calculating synergistic and antagonistic responses of herbicide Combinations”, Weeds, 15, pp. 20–22, 1967) and compared with the observed efficacies.

[1] = 0.6 ppm active compound in the spray liquor
[2] = 1.25 ppm active compound in the spray liquor

| Compound | Efficacy in % of the untreated control (0.3 ppm active compound in the spray liquor) | Efficacy in % of the untreated control [1] | Efficacy in % of the untreated control [2] | Efficacy in % of the untreated control (2.5 ppm active compound in the spray liquor) |
| --- | --- | --- | --- | --- |
| Fc1ccc([C@]2(Cn3cncn3)O[C@H]2c2ccccc2Cl)cc1 (racemic) [III.a, (2RS,3SR)-1-[3-(2-chlorophenyl)-2-(4-fluorophenyl)-oxiran-2-ylmethyl]-1H-1,2,4-triazole] | 4% | 4% | 4% | – |
| pyraclostrobin [II-6] | – | 36% | 47% | 57% |
